In ChEMBL document CHEMBL1201862, “PubChem BioAssay data set” (2004):
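Cultured in 96-well plates, cells were exposed to test compound for 48 hours across five concentrations. The concentration for 50% growth inhibition is given as GI50.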 Active and inactive are the calls of the source. Rule as the data show it: active = GI50 up to about 1.1 µM and inactive = higher.

Tests used:
Assay in all cases: NCI tumour cell line growth inhibition, 48 h
A498 = tested on: A498
CCRF-CEM = tested on: CCRF-CEM
COLO 205 = tested on: COLO 205
DLD-1 = tested on: DLD-1
DMS-114 = tested on: DMS-114
DMS-273 = tested on: DMS-273
HCC 2998 = tested on: HCC 2998
HOP-18 = tested on: HOP-18
HOP-62 = tested on: HOP-62
K562 = tested on: K562
KM-20L2 = tested on: KM-20L2
LXFL 529 = tested on: LXFL 529
M14 = tested on: M14
M19-MEL = tested on: M19-MEL
MOLT-4 = tested on: MOLT-4
Malme-3M = tested on: Malme-3M
NCI-H226 = tested on: NCI-H226
NCI-H23 = tested on: NCI-H23
NCI-H522 = tested on: NCI-H522
OVCAR-3 = tested on: OVCAR-3
OVCAR-5 = tested on: OVCAR-5
OVCAR-8 = tested on: OVCAR-8
SF-268 = tested on: SF-268
SK-MEL-2 = tested on: SK-MEL-2
SK-MEL-5 = tested on: SK-MEL-5
SN12C = tested on: SN12C
SNB-19 = tested on: SNB-19
SNB-78 = tested on: SNB-78
U-251 = tested on: U-251
UACC-62 = tested on: UACC-62
786-0 = tested on: 786-0
A549 = tested on: A549
ACHN = tested on: ACHN
BT-549 = tested on: BT-549
CAKI-1 = tested on: CAKI-1
DU-145 = tested on: DU-145
EKVX = tested on: EKVX
HCT-116 = tested on: HCT-116
HCT-15 = tested on: HCT-15
HL-60 = tested on: HL-60
HOP-92 = tested on: HOP-92
HT-29 = tested on: HT-29
Hs-578T = tested on: Hs-578T
IGROV-1 = tested on: IGROV-1
KM12 = tested on: KM12
LOX IMVI = tested on: LOX IMVI
MCF7 = tested on: MCF7
MDA-MB-435 = tested on: MDA-MB-435
MDA-N = tested on: MDA-N
NCI-H460 = tested on: NCI-H460
NCI/ADR-RES = tested on: NCI/ADR-RES
OVCAR-4 = tested on: OVCAR-4
PC-3 = tested on: PC-3
RPMI-8226 = tested on: RPMI-8226
RXF 393 = tested on: RXF 393
SF-295 = tested on: SF-295
SF-539 = tested on: SF-539
SK-MEL-28 = tested on: SK-MEL-28
SK-OV-3 = tested on: SK-OV-3
SNB-75 = tested on: SNB-75
SR = tested on: SR
SW-620 = tested on: SW-620
T47D = tested on: T47D
TK-10 = tested on: TK-10
UACC-257 = tested on: UACC-257
UO-31 = tested on: UO-31
XF498 = tested on: XF498

Measured: GI50

COc1ccc2c(=O)oc3c(OC)cc(CCN(C)C)c4c(=O)oc1c2c34
inactive: A498 20.5 µM | CCRF-CEM 1.49 µM | COLO 205 4.94 µM | DLD-1 22.8 µM | DMS-114 12.1 µM | DMS-273 15.6 µM | HCC 2998 12.4 µM | HOP-18 14.4 µM | HOP-62 14.2 µM | K562 2.56 µM | KM-20L2 14.9 µM | LXFL 529 13.3 µM | M14 17.4 µM | M19-MEL 14.5 µM | MOLT-4 11.5 µM | Malme-3M 14.5 µM | NCI-H226 17.9 µM | NCI-H23 17.8 µM | NCI-H522 12.5 µM | OVCAR-3 16.1 µM | OVCAR-5 17.9 µM | OVCAR-8 10.4 µM | SF-268 12.9 µM | SK-MEL-2 17.7 µM | SK-MEL-5 12.3 µM | SN12C 13.8 µM | SNB-19 14.3 µM | SNB-78 14.3 µM | U-251 14.4 µM | UACC-62 17.9 µM

C=CC/C=C/Cc1csc(C(C)(C)C(O)C/C=C/C(=C)CCNC(=O)OC)n1 (centres undefined)
44.1 µM: HCT-15
inactive: 786-0 > 100 µM | A498 > 60.5 µM | A549 41.4 µM | ACHN 49.7 µM | BT-549 3.33 µM | CAKI-1 > 67 µM | CCRF-CEM 34.9 µM | COLO 205 59.7 µM | DLD-1 83.4 µM | DMS-273 3.26 µM | DU-145 > 100 µM | EKVX 27.9 µM | HCC 2998 > 95.3 µM | HL-60 9.71 µM | HOP-62 > 100 µM | HOP-92 20.6 µM | HT-29 48.8 µM | Hs-578T > 100 µM | IGROV-1 28.4 µM | KM-20L2 51.2 µM | KM12 > 60.3 µM | LOX IMVI 44.6 µM | LXFL 529 21.2 µM | M14 43.5 µM | M19-MEL 25.5 µM | MCF7 96.2 µM | MDA-MB-435 49.7 µM | MDA-N 45.8 µM | MOLT-4 36.1 µM | Malme-3M > 91.8 µM | NCI-H226 > 100 µM | NCI-H460 29.5 µM | NCI-H522 19.1 µM | NCI/ADR-RES 75.7 µM | OVCAR-3 24.8 µM | OVCAR-4 > 57.3 µM | OVCAR-5 > 100 µM | OVCAR-8 > 73.5 µM | PC-3 > 100 µM | RPMI-8226 30.7 µM | RXF 393 > 63.4 µM | SF-268 80.4 µM | SF-295 1.28 µM | SF-539 > 100 µM | SK-MEL-28 > 87.1 µM | SK-MEL-2 > 100 µM | SK-MEL-5 1.17 µM | SK-OV-3 > 85.3 µM | SN12C > 100 µM | SNB-19 > 100 µM | SNB-75 43 µM | SW-620 26.7 µM | T47D > 100 µM | TK-10 > 100 µM | U-251 74.5 µM | UACC-257 1.49 µM | UACC-62 44.4 µM | UO-31 > 71.3 µM | XF498 > 50 µM
active: DMS-114 < 0.0132 µM | HCT-116 0.679 µM | K562 0.845 µM | NCI-H23 0.245 µM | SR 0.492 µM

NC1=NC(=O)C(CC(=O)Nc2ccc(Cl)cc2Cl)S1 (centres undefined)
> 100 µM: HCT-15
inactive: 786-0 > 100 µM | A498 57.4 µM | A549 > 100 µM | ACHN > 100 µM | CAKI-1 > 100 µM | CCRF-CEM 5.13 µM | COLO 205 > 100 µM | DLD-1 > 100 µM | DMS-273 > 100 µM | EKVX > 100 µM | HCC 2998 > 100 µM | HOP-62 > 100 µM | HT-29 > 100 µM | IGROV-1 > 100 µM | K562 > 100 µM | KM-20L2 > 100 µM | KM12 > 100 µM | LOX IMVI > 100 µM | LXFL 529 > 100 µM | M14 > 100 µM | M19-MEL > 100 µM | MOLT-4 48.4 µM | Malme-3M > 100 µM | NCI-H23 > 100 µM | NCI-H460 > 100 µM | OVCAR-3 > 100 µM | OVCAR-4 > 100 µM | OVCAR-5 > 100 µM | OVCAR-8 > 100 µM | RPMI-8226 > 100 µM | SF-268 > 100 µM | SF-295 > 100 µM | SF-539 > 100 µM | SK-MEL-28 > 100 µM | SK-MEL-2 > 100 µM | SK-MEL-5 > 100 µM | SK-OV-3 > 100 µM | SN12C > 100 µM | SNB-19 > 100 µM | SNB-75 > 100 µM | SNB-78 > 100 µM | SW-620 > 100 µM | TK-10 > 100 µM | U-251 > 100 µM | UACC-257 > 100 µM | UACC-62 > 100 µM | UO-31 > 100 µM | XF498 > 100 µM
